Test results as given in PMC11840605, “Crystallographic and Thermodynamic Evidence of Negative Coupling in the Flavin-Dependent Tryptophan Halogenases AbeH and BorH” (ACS Omega, 2025).
Several values for one entry are separate records, joined by “and”; a condition that tells them apart may be missing. Equal values may be shown once. Entries after “also recorded” stand apart in the source; their conditions may differ.

What was measured:
[1] = test system: BorH/Trp; assay: Isothermal titration calorimetry, FAD into BorH preincubated with Trp; format: binding, uncultured soil actinomycetes
Procedure: ITC experiments were performed using a VP-ITC isothermal titration calorimeter (MicroCal) in 20 mM HEPES pH 7.5, 350 mM NaCl, 1 mM ethylenediamine tetraacetic acid (EDTA) and 15% (v/v) glycerol. Solutions of AbeH, BorH, FAD (Chem-Implex), and Trp (Acros Organics) were prepared in the same buffer and degassed under vacuum at 30 °C for 20 min before loading in the syringe or cell. To analyze formation of binary complexes, AbeH or BorH was placed inside the cell, and ligand (FAD or Trp) was injected. For ternary complex titration, one ligand was preincubated with the macromolecule for 30 min at 30 °C to form binary complexes of AbeH/FAD, AbeH/Trp, BorH/FAD, and BorH/Trp before titrating with the second ligand. […] Formation of FADH2 by sodium dithionite was verified using absorbance and fluorescence spectrophotometry.
ITC experiments were performed with reference power set to 10 μcal/s and Milli-Q water in the reference cell. […] Heats of dilution for all titrants were measured by titrating ligand into buffer for binary complex titrations, and by titrating ligand into a solution containing the other ligand but no protein for ternary complex titration. […]
Titrations were analyzed by manually integrating each injection, subtracting the heat of dilution, and carrying out nonlinear least-squares fit of the calorimetric binding data to a one-site model using Origin 7.0 (Origin Lab). […]

[2] = target: T1, AbeH (uncultured bacterium, UniProt F6LWA5); assay: FAD fluorescence quenching titration with AbeH; format: binding, uncultured soil actinomycetes
Procedure: Quenching of FAD fluorescence quenching upon binding to AbeH was measured in the absence and presence of Trp in 20 mM Tris-HCl pH 8.0 and 100 mM NaCl using a Quantmaster 40 fluorimeter (Photon Technologies International). Trp and FAD solutions were prepared in 20 mM Tris-HCl pH 8, and concentrations were determined by absorbance at 280 and 450 nm, respectively. FAD fluorescence was measured using excitation at 450 nm (4 nm slit opening) and emission set at 525 nm (6 nm slit opening) using a fluorescence cuvette to collect 50 scans, which were averaged later during data processing in Microsoft Excel. […] Raw fluorescence intensities were corrected for the buffer, Trp, and AbeH background contributions. Quenched fluorescence intensity was plotted vs AbeH concentration and fit to eq 1 using GraphPad Prism 8.0 by nonlinear regression analysis. In eq 1, F = fractional saturation, ΔF = fluorescence quenching upon AbeH/FAD complex formation (calculated from the difference of FAD fluorescence intensity at different AbeH concentration), ΔFmax = maximum fluorescence change obtained from fit, [AbeHFAD] = FAD-bound AbeH, [AbeH]T = Total AbeH concentration, [FAD]T = Total FAD concentration, KD = equilibrium dissociation constant. […]
A. Fluorescence quenching observed from binding of Apo-AbeH ([…]) to […] FAD; […]

[3] = target: T1, AbeH; assay: Quenching of AbeH intrinsic Trp fluorescence upon FAD titration; design: species or system uncultured soil actinomycetes; details: FAD binding to AbeH, 100 nM AbeH
Procedure: Intrinsic tryptophan fluorescence spectroscopy was used to measure FAD binding to AbeH and BorH in 20 mM HEPES pH 7.7- and 50 mM sodium citrate. FAD was prepared in the same buffer and its concentration was determined spectrophotometrically as described earlier. Fluorescence experiments were performed as described earlier. FAD binding to apo-AbeH or apo-BorH was performed in duplicate with 100 nM fixed AbeH or BorH with variable FAD concentrations up to 30 and 70 μM, respectively. AbeH/FAD binding was monitored using excitation at 295 nm and emission at 328 nm. BorH/FAD binding was monitored using excitation at 290 nm and emission at 326 nm. Inner filter effect corrected fluorescence intensities were plotted against quenched intrinsic tryptophan fluorescence of AbeH and BorH. Data were fitted by nonlinear regression to eq 1 using GraphPad Prism 8.0.
Figure S9: FAD binding determined by quenching of BorH and AbeH intrinsic Trp fluorescence.
A. Variable concentrations of FAD (0-70 µM) were incubated with 100 nM BorH and Trp fluorescence was measured with excitation at 290 nm and emission at 326 nm. […]
B. Variable concentrations of FAD (0-30 µM) were incubated with 100 nM AbeH and Trp fluorescence was measured […] with excitation at 295 nm and emission at 328 nm. […]

[4] = target: BorH (uncultured bacterium, UniProt M9QSI0); details: previously shown; cited from earlier work
Chain of BorH (M9QSI0 1-529): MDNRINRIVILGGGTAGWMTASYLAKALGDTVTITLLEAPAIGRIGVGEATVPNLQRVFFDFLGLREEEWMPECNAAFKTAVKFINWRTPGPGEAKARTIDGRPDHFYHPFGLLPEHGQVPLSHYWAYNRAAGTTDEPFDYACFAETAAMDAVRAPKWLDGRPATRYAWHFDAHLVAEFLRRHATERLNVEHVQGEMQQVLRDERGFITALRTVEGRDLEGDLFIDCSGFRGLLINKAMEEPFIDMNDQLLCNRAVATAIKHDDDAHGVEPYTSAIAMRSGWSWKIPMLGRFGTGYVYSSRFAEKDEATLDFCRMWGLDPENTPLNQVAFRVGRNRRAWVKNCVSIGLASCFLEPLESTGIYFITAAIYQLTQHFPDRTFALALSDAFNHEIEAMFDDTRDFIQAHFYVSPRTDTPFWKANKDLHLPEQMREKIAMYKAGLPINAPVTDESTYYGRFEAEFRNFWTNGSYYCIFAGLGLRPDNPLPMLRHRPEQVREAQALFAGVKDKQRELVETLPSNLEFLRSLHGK

T1 sequence (F6LWA5 entry or part of it): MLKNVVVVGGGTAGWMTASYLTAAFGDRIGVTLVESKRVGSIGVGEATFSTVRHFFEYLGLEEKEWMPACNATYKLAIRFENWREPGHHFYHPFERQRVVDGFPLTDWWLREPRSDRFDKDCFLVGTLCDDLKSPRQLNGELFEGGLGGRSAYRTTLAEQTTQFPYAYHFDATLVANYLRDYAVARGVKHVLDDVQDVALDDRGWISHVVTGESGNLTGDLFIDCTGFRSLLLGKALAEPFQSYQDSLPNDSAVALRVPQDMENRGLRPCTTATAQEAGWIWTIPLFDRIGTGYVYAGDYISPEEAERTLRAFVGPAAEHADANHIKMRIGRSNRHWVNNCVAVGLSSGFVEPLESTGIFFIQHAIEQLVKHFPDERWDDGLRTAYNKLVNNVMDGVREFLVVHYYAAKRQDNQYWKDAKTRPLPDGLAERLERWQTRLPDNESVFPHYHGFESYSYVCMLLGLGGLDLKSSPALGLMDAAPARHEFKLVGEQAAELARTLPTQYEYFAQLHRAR

| Compound | Binding of FAD to preincubated BorH/Trp by ITC, in words ([1]; 0.63 mM FAD into 10 μM BorH preincubated with 18 mM Trp (95% saturated)) | KD, FAD binding to BorH/Trp, ITC ([1]; BorH preincubated with Trp) | Kd [2] [µM] | Kd [3] | Halogenation of the substrate by BorH, in words [4] |
| --- | --- | --- | --- | --- | --- |
| Cc1cc2nc3c(=O)[nH]c(=O)nc-3n(C[C@H](O)[C@H](O)[C@H](O)COP(=O)(O)OP(=O)(O)OC[C@H]3O[C@@H](n4cnc5c(N)ncnc54)[C@H](O)[C@@H]3O)c2cc1C [FAD] | No binding was observed; also recorded: failed to detect any heat of binding; also recorded: no evidence of binding | no binding | 1.6 ± 0.4 | 0.96 µM and 1 µM |  |
| N[C@@H](Cc1c[nH]c2ccccc12)C(=O)O [Tryptophan, L-tryptophan] |  |  |  |  | brominate and chlorinate |
